These results are taken from US20240382482A1, “PLASMA KALLIKREIN INHIBITORS” (TAKEDA PHARMACEUTICAL COMPANY LIMITED, priority 2021, published 2024).

pEC50: −log10 of the molar value.

The target in one assay is T1, plasma kallikrein (Homo sapiens, UniProt P03952).
T1 construct: added to sodium citrate collected human or rat plasma in a 96-well microplate; from tissue
The assay is described as follows: Neat human plasma assay (fluorogenic peptide), contact pathway-activated plasma. The assay is classed as biochemical. The following applies: sodium citrate human plasma (78% final), 10 nM human FXIIa, 100 μM PFR-AMC, room temperature. As to the method:
To analyze inhibition of plasma kallikrein in an ex vivo setting, the potency of compounds was measure in contact pathway-activated plasma assays. In a fluorogenic peptide substrate assay, test compounds dissolved in DMSO were added to sodium citrate collected human or rat plasma in a 96-well microplate. Alternatively, citrated plasma was collected from rats administered the compounds orally or by IV. 10 nM of human FXIIa (Enzyme Research Laboratories) diluted in PKa buffer (20 mM Tris-HCl, pH 7.5, 150 mM NaCl, 1 mM EDTA, 0.1% PEG-8000, and 0.1% Triton X-100) was added to the plasma, followed by the 100 μM of the profluorescent, synthetic plasma kallikrein substrate PFR-AMC (also diluted in PKa buffer). Final plasma concentration in the reaction was 78%. Fluorescence was immediately monitored by excitation/emission wavelengths of 360 nm/480 nm respectively over a period of 5 minutes in a microplate reader. The resulting linear increase in fluorescence emission (reflecting PKa proteolysis of PFR-AMC substrate) was fit to extract a proteolytic rate (fluorescent units over time), and this rate was subsequently plotted against compound inhibitor concentration. Resulting plots were fit to a standard 4-parameter IC50/IC90 equation to determine min/max values, IC50/90, and slope. All experimental steps were performed at room temperature.

For assay [1], the target named is human activated kallikrein enzyme (Homo sapiens, UniProt P03952). Put plainly: Inhibition of human activated kallikrein enzyme, fluorogenic peptide substrate assay (500 pM enzyme format). The assay is classed as biochemical. The note with it: 500 pM activated kallikrein, 300 μM PFR-AMC substrate, 30 min preincubation, 10 min reaction, room temperature; read-out: Primary Dose Response Assay: Average EC50. Summed up: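 500 pM enzyme preincubated 30 min at room temperature with inhibitor in 20 mM Tris pH 7.5, 150 mM NaCl, 1 mM EDTA, 0.1% PEG-400, 0.1% Triton X-100. Reaction started with 300 μM PFR-AMC and run 10 min at room temperature. AMC fluorescence read at ex 380/em 460 nm, and EC50 values reported as ranges.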
Sequence of human activated kallikrein enzyme (P03952 391-638 limits assumed): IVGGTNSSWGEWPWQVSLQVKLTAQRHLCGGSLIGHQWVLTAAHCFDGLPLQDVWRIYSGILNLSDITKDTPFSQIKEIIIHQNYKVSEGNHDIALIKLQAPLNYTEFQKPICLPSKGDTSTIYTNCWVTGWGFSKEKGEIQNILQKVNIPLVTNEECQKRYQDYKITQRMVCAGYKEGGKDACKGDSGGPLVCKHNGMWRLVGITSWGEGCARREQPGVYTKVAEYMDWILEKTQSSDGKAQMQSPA
Sequence of human activated kallikrein enzyme (P03952 20-390 partner limits assumed): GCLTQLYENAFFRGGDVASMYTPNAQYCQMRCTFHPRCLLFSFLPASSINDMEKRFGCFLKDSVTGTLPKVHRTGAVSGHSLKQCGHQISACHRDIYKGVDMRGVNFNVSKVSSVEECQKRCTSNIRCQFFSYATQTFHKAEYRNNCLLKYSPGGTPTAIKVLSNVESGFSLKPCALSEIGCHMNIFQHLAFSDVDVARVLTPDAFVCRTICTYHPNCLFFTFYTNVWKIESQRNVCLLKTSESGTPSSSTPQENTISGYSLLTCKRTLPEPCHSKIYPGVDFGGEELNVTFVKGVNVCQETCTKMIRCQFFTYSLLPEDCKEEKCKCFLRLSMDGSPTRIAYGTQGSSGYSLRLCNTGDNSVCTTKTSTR

T1 sequence (P03952 391-638 limits assumed): as the sequence (P03952 391-638 limits assumed) above
T1 sequence (P03952 20-390 partner limits assumed): as the sequence (P03952 20-390 partner limits assumed) above

The molecule `Cc1cc(N)nc(C)c1CNc1cc(OCc2cn3cc(C4CC4)cc(C4(F)COC4)c3n2)ncn1` [Example 109, N-((6-amino-2,4-dimethylpyridin-3-yl)methyl)-6-((6-cyclopropyl-8-(3-fluorooxetan-3-yl)imidazo[1,2-a]pyridin-2-yl)methoxy)pyrimidin-4-amine] had an IC90 on plasma kallikrein of no more than 500 nM. In assay [1], the pEC50 was no less than 8.30.

`O=C(Cc1ncn2ccc(Cl)cc12)Nc1cc(NCc2cn3cc(C4CC4)cc(C4(O)COC4)c3n2)ncn1` [Example 14, 2-(7-chloroimidazo[1,5-a]pyridin-1-yl)-N-(6-(((6-cyclopropyl-8-(3-hydroxyoxetan-3-yl)imidazo[1,2-a]pyridin-2-yl)methyl)amino)pyrimidin-4-yl)acetamide] yielded a concentration for an effect of 90% (IC90) against plasma kallikrein of no more than 500 nM. Besides, the negative logarithm of the EC50 (pEC50) in assay [1] was no less than 8.30.

`O=C(Cc1ncn2ccc(Cl)cc12)Nc1cc(NCc2cn3cc(C4CC4)cc(CO)c3n2)ccn1` [Example 52, 2-(7-chloroimidazo[1,5-a]pyridin-1-yl)-N-(4-(((6-cyclopropyl-8-(hydroxymethyl)imidazo[1,2-a]pyridin-2-yl)methyl)amino)pyridin-2-yl)acetamide] yielded an IC90 against plasma kallikrein of no more than 500 nM. Further, in assay [1], the pEC50 is no less than 8.30.

As to `Cc1cc(N)nc(C)c1CNc1cc(N2C[C@@H](O)C[C@@H]2c2cn3cc(C4CC4)ccc3n2)ncn1` [Example 135, (3S,5R)-1-(6-(((6-amino-2,4-dimethylpyridin-3-yl)methyl)amino)pyrimidin-4-yl)-5-(6-cyclopropylimidazo[1,2-a]pyridin-2-yl)pyrrolidin-3-ol], the IC90 against plasma kallikrein is no more than 500 nM. Moreover, in assay [1], the pEC50 was no less than 8.30.

On to `Cc1cc(N)nc(C)c1CNc1cc(OCc2cn3cc(C4CC4)ccc3n2)ccn1` [Example 110, 5-(((4-((6-cyclopropylimidazo[1,2-a]pyridin-2-yl)methoxy)pyridin-2-yl)amino)methyl)-4,6-dimethylpyridin-2-amine], for which the IC90 against plasma kallikrein was in the range of 5000 to 25000 nM. Also, the pEC50 in assay [1] was no less than 8.30.

At plasma kallikrein, `O=C(Cc1ncn2ccc(Cl)cc12)Nc1cc(NCc2cn3cc(C4CC4)cc(N4CCCC4=O)c3n2)ncn1` [Example 12, 2-(7-chloroimidazo[1,5-a]pyridin-1-yl)-N-(6-(((6-cyclopropyl-8-(2-oxopyrrolidin-1-yl)imidazo[1,2-a]pyridin-2-yl)methyl)amino)pyrimidin-4-yl)acetamide] yielded a concentration for an effect of 90% (IC90) of 500 to 5000 nM. The pEC50 in assay [1] was no less than 8.30.

`CN1C(=O)CN(c2cc(C3CC3)cn3cc(CNc4cc(NC(=O)Cc5ncn6ncc(Cl)cc56)ncn4)nc23)C1=O` [Example 141, 2-(3-chloroimidazo[1,5-b]pyridazin-5-yl)-N-(6-(((6-cyclopropyl-8-(3-methyl-2,4-dioxoimidazolidin-1-yl)imidazo[1,2-a]pyridin-2-yl)methyl)amino)pyrimidin-4-yl)acetamide] registered an IC90 on plasma kallikrein of 500 to 5000 nM. Also, in assay [1], the pEC50 was no less than 8.30.

On to `Cc1cc(N)nc(C)c1CNc1cc(OCc2cn3cc(C4CC4)cc(CO)c3n2)ncn1` [Example 113, (2-(((6-(((6-amino-2,4-dimethylpyridin-3-yl)methyl)amino)pyrimidin-4-yl)oxy)methyl)-6-cyclopropylimidazo[1,2-a]pyridin-8-yl)methanol], for which the IC90 against plasma kallikrein was in the range of 5000 to 25000 nM. Further, the negative logarithm of the EC50 (pEC50) in assay [1] is no less than 8.30.

`N#Cc1cc(C2CC2)cn2cc(CNc3ccnc(NC(=O)Cc4ncn5ccc(Cl)cc45)c3)nc12` [Example 30, 2-(7-chloroimidazo[1,5-a]pyridin-1-yl)-N-(4-(((8-cyano-6-cyclopropylimidazo[1,2-a]pyridin-2-yl)methyl)amino)pyridin-2-yl)acetamide] returned an IC90 against plasma kallikrein of 500 to 5000 nM. Moreover, in assay [1], the pEC50 was no less than 8.30.

As for `O=C(Cc1ncn2ccc(Cl)cc12)Nc1cc(NCc2cn3cc(C4CC4)ccc3n2)cnn1` [Example 31, 2-(7-chloroimidazo[1,5-a]pyridin-1-yl)-N-(5-(((6-cyclopropylimidazo[1,2-a]pyridin-2-yl)methyl)amino)pyridazin-3-yl)acetamide], at plasma kallikrein, the IC90 lay within 500 to 5000 nM. Further, the pEC50 in assay [1] is no less than 8.30.

In turn, `Cc1cc(N)nc(C)c1CNc1cc(OCc2cn3cc(C4CC4)ccc3n2)ncn1` [Example 107, N-((6-amino-2,4-dimethylpyridin-3-yl)methyl)-6-((6-cyclopropylimidazo[1,2-a]pyridin-2-yl)methoxy)pyrimidin-4-amine] gave an IC90 against plasma kallikrein of 5000 to 25000 nM. Also, the pEC50 in assay [1] is no less than 8.30.

For the molecule `Cc1cc(N)nc(C)c1CNc1cc(OCc2cn3cc(C4CC4)cc(C#N)c3n2)ncn1` [Example 112, 2-(((6-(((6-amino-2,4-dimethylpyridin-3-yl)methyl)amino)pyrimidin-4-yl)oxy)methyl)-6-cyclopropylimidazo[1,2-a]pyridine-8-carbonitrile], at plasma kallikrein, the 90% effect concentration (IC90) fell in the range of 500 to 5000 nM. In assay [1], the pEC50 was no less than 8.30.

`O=C(Cc1n[nH]c2ccc(Cl)cc12)Nc1cc(NCc2cn3cc(C4CC4)ccc3n2)ccn1` [Example 26, 2-(5-chloro-1H-indazol-3-yl)-N-(4-(((6-cyclopropylimidazo[1,2-a]pyridin-2-yl)methyl)amino)pyridin-2-yl)acetamide] had an IC90 on plasma kallikrein of 5000 to 25000 nM. Besides, in assay [1], the pEC50 is no less than 8.30.

In turn, `COc1ccc(-n2cnnn2)c(CNc2cc(NCc3cn4cc(C5CC5)ccc4n3)ncn2)c1F` [Example 55, N^4-((6-cyclopropylimidazo[1,2-a]pyridin-2-yl)methyl)-N^6-(2-fluoro-3-methoxy-6-(1H-tetrazol-1-yl)benzyl)pyrimidine-4,6-diamine] returned an IC90 against plasma kallikrein of 500 to 5000 nM. Further, in assay [1], the pEC50 is no less than 8.30.

Molecule `CN1CCN(c2cc(C3CC3)cn3cc(CNc4cc(NC(=O)Cc5ncn6ccc(Cl)cc56)ncn4)nc23)CC1` [Example 17, 2-(7-chloroimidazo[1,5-a]pyridin-1-yl)-N-(6-(((6-cyclopropyl-8-(4-methylpiperazin-1-yl)imidazo[1,2-a]pyridin-2-yl)methyl)amino)pyrimidin-4-yl)acetamide] returned an IC90 against plasma kallikrein of no more than 500 nM. Moreover, the pEC50 in assay [1] is no less than 8.30.

Consider `O=C(Cc1ncn2ccc(Cl)cc12)Nc1cc(NCc2cn3cc(C4CC4)ccc3n2)ncn1` [Example 1, 2-(7-chloroimidazo[1,5-a]pyridin-1-yl)-N-(6-(((6-cyclopropylimidazo[1,2-a]pyridin-2-yl)methyl)amino)pyrimidin-4-yl)acetamide], for which the IC90 at plasma kallikrein was in the range of 500 to 5000 nM. Further, in assay [1], the negative-log EC50 (pEC50) is no less than 8.30.

The term IC90 denotes the point of the concentration-response curve where the effect stands at 90%. Higher therefore signals a need for much substance. Usually pEC50 stands for the negative decadic logarithm of the EC50, by convention in mol/L.
